Results on five compounds are retold here after patent US20250066376A1, “OPIOID RECEPTOR ANTAGONIST PRODRUGS” (Nirsum Laboratories, Inc., priority 2024, published 2025).

A short description of this series: Solubility of naloxone and naltrexone prodrug compounds. It counts as physicochemical. To be noted: for Solubility in water: lower limit of aqueous solubility; for Solubility in cottonseed oil / Solubility in miglyol 812N / Solubility in sesame oil: solubility study in oil excipients at 50 mg/ml (base equivalents). An excerpt:
Example 12: Solubility of Naloxone and Naltrexone Prodrug Compounds
Table 12 and Table 13 report the solubility data for the naloxone and naltrexone prodrug compounds, respectively.

For the compound `C=CCN1CC[C@]23c4c5ccc(OCOC(=O)CCCCC)c4O[C@H]2C(=O)CC[C@@]3(O)[C@H]1C5` [III-1, [(3R,4aS,7aR,12bS)-3-allyl-4a-hydroxy-7-oxo-2,4,5,6,7a,13-hexahydro-1H-4,12-methanobenzofuro[3,2-e]isoquinoline-9-yl]oxymethyl hexanoate], the Solubility in water result is on record as “Solubility in water: <0.001 mg/mL”. Further, where the note is “naloxone prodrugs (Table 12)”, the “Solubility in cottonseed oil” value is “In cottonseed oil: >50.03 mg/ml”, the “Solubility in miglyol 812N” value is listed as “In miglyol 812N: <50.53 mg/ml” and the “Solubility in sesame oil” value is “In sesame oil: >50.01 mg/ml”.

Regarding `C=CCN1CC[C@]23c4c5ccc(OCOC(=O)CCCCC)c4O[C@H]2C(=O)CC[C@@]3(O)[C@H]1C5` [III-2, [(3R,4aS,7aR,12bS)-3-allyl-4a-hydroxy-7-oxo-2,4,5,6,7a,13-hexahydro-1H-4,12-methanobenzofuro[3,2-e]isoquinoline-9-yl]oxymethyl hexanoate], the Solubility in water entry is on record as “Solubility in water: <0.001 mg/mL”. Moreover, for the setting “naloxone prodrugs (Table 12)”, the “Solubility in cottonseed oil” value is listed as “In cottonseed oil: >50.48 mg/ml”, the “Solubility in miglyol 812N” value was “In miglyol 812N: <50.28 mg/ml” and the “Solubility in sesame oil” value is on record as “In sesame oil: <50.44 mg/ml”.

For `CCCCOC(=O)OCOc1ccc2c3c1O[C@H]1C(=O)CC[C@@]4(O)[C@@H](C2)N(CC2CC2)CC[C@]314` [IV-4, [(3R,4aS,7aR,12bS)-3-(cyclopropylmethyl)-4a-hydroxy-7-oxo-2,4,5,6,7a,13-hexahydro-1H-4,12-methanobenzofuro[3,2-e]isoquinoline-9-yl]oxymethyl butyl carbonate], the Solubility in water result is “Solubility in water: <0.001 mg/mL”. In addition, under “naltrexone prodrugs (Table 13)”, the “Solubility in cottonseed oil” value is on record as “In cottonseed oil: <50.12 mg/mL”, the “Solubility in miglyol 812N” value is listed as “In miglyol 812N: <50.41 mg/mL” and the “Solubility in sesame oil” value is “In sesame oil: <50.07 mg/mL”.

Consider `CCCCCCOC(=O)OCOc1ccc2c3c1O[C@H]1C(=O)CC[C@@]4(O)[C@@H](C2)N(CC2CC2)CC[C@]314` [IV-5, [(3R,4aS,7aR,12bS)-3-(cyclopropylmethyl)-4a-hydroxy-7-oxo-2,4,5,6,7a,13-hexahydro-1H-4,12-methanobenzofuro[3,2-e]isoquinoline-9-yl]oxymethyl hexyl carbonate], for which the Solubility in water entry was “Solubility in water: <0.001 mg/mL”. In addition, where the note is “naltrexone prodrugs (Table 13)”, the “Solubility in cottonseed oil” value is listed as “In cottonseed oil: <50.19 mg/mL”, the “Solubility in miglyol 812N” value is “In miglyol 812N: <50.24 mg/mL” and the “Solubility in sesame oil” value is listed as “In sesame oil: >50.31 mg/mL”.

Regarding `CCCCCCCCOC(=O)OCOc1ccc2c3c1O[C@H]1C(=O)CC[C@@]4(O)[C@@H](C2)N(CC2CC2)CC[C@]314` [IV-6, [(3R,4aS,7aR,12bS)-3-(cyclopropylmethyl)-4a-hydroxy-7-oxo-2,4,5,6,7a,13-hexahydro-1H-4,12-methanobenzofuro[3,2-e]isoquinoline-9-yl]oxymethyl octyl carbonate], the Solubility in water entry is reported as “Solubility in water: <0.001 mg/mL”. Where the note is “naltrexone prodrugs (Table 13)”, the “Solubility in cottonseed oil” value is reported as “In cottonseed oil: >50.28 mg/mL”, the “Solubility in miglyol 812N” value is “In miglyol 812N: >50.11 mg/mL” and the “Solubility in sesame oil” value is on record as “In sesame oil: >50.43 mg/mL”.
